Test results taken from ChEMBL document CHEMBL4390673, “Identification of Novel Coumestan Derivatives as Polyketide Synthase 13 Inhibitors against Mycobacterium tuberculosis. Part II” (J Med Chem, 2019).
In brackets after ≈: the same amount, converted by molar mass.

What was measured:
[1] = test system: Polyketide synthase Pks13 (Mycobacterium tuberculosis (strain ATCC 25618 / H37Rv)), I6X8D2 [D1644G,N1640K]; assay: Inhibition of Pks13 D1644G/N1640K double mutant thioesterase domain in Mycobacterium tuberculosis H37Rv assessed as reduction in bacterial growth by microplate alamar blue assay
[2] = test system: Polyketide synthase Pks13 (Mycobacterium tuberculosis (strain ATCC 25618 / H37Rv)), I6X8D2 [D1644G,N1640K]; assay: Inhibition of Pks13 D1644G/N1640K double mutant thioesterase domain in drug-susceptible Mycobacterium tuberculosis V4207 assessed as reduction in bacterial growth by microplate alamar blue assay
[3] = test system: Polyketide synthase Pks13 (Mycobacterium tuberculosis (strain ATCC 25618 / H37Rv)), I6X8D2 [D1644G,N1640K]; assay: Inhibition of Pks13 D1644G/N1640K double mutant thioesterase domain in multidrug-resistant Mycobacterium tuberculosis V2475 assessed as reduction in bacterial growth by microplate alamar blue assay
[4] = test system: Polyketide synthase Pks13 (Mycobacterium tuberculosis (strain ATCC 25618 / H37Rv)), I6X8D2 [D1644G,N1640K]; assay: Inhibition of Pks13 D1644G/N1640K double mutant thioesterase domain in multidrug-resistant Mycobacterium tuberculosis KZN494 assessed as reduction in bacterial growth by microplate alamar blue assay
[5] = test system: Polyketide synthase Pks13 (Mycobacterium tuberculosis (strain ATCC 25618 / H37Rv)), I6X8D2 [D1644G,N1640K]; assay: Inhibition of Pks13 D1644G/N1640K double mutant thioesterase domain in extensively drug-resistant Mycobacterium tuberculosis TF274 assessed as reduction in bacterial growth by microplate alamar blue assay
[6] = test system: Polyketide synthase Pks13 (Mycobacterium tuberculosis (strain ATCC 25618 / H37Rv)), I6X8D2 [D1644G,N1640K]; assay: Inhibition of Pks13 D1644G/N1640K double mutant thioesterase domain in extensively drug-resistant Mycobacterium tuberculosis R506 assessed as reduction in bacterial growth by microplate alamar blue assay

SMILES | MIC=<90 [1] | further results
O=c1oc2ccccc2c2oc3cc(Br)c(O)c(CN4CCCCC4)c3c12 | > 64 µg/mL | –
O=C(c1c(O)ccc2oc3c4ccccc4oc(=O)c3c12)N1CCCCC1 | > 64 µg/mL | –
COc1ccc2oc3c4ccccc4oc(=O)c3c2c1CN1CCCC1=O | > 64 µg/mL | –
Cc1cc(O)c(CN2CCCCC2)c2c1oc1c3ccccc3oc(=O)c12 | 0.125 µg/mL (≈ 0.344 µM) | –
CC[C@@H](CO)NCCN[C@@H](CC)CO | 1 µg/mL (≈ 4.89 µM) | –
CC1CCCCN1Cc1c(O)ccc2oc3c4ccccc4oc(=O)c3c12 (stereo unspecified) | 1 µg/mL (≈ 2.75 µM) | –
COc1cc2oc3c4ccccc4oc(=O)c3c2c(CN2CCCCC2)c1O | 2 µg/mL (≈ 5.27 µM) | –
CC1COc2c(N3CCN(C)CC3)c(F)cc3c(=O)c(C(=O)O)cn1c23 (stereo unspecified) | – | MIC=<90 [2]: 0.5 µg/mL (≈ 1.38 µM); MIC=<90 [3]: 0.5 µg/mL (≈ 1.38 µM); MIC=<90 [4]: 0.5 µg/mL (≈ 1.38 µM); MIC=<90 [5]: 8 µg/mL (≈ 22.1 µM); MIC=<90 [6]: 4 µg/mL (≈ 11.1 µM)
CNC(=O)c1c(-c2ccc(O)cc2)oc2ccc(O)c(CN3CCCCC3)c12 | 0.0313 µg/mL (≈ 0.0823 µM) | –
COc1ccc2oc3c4ccccc4oc(=O)c3c2c1C(=O)N1CCCCC1 | > 64 µg/mL | –
CCOC(=O)c1c(-c2ccccc2)oc2ccc(O)c(CN3CCC(C)CC3)c12 | 1 µg/mL (≈ 2.54 µM) | –
O=c1oc2ccccc2c2oc3c(Br)cc(O)c(CN4CCCCC4)c3c12 | 2 µg/mL (≈ 4.67 µM) | –
O=c1oc2ccccc2c2oc3cc(CN4CCCCC4)c(O)cc3c12 | > 64 µg/mL | –
O=c1oc2ccccc2c2oc3cc(O)c(O)c(CN4CCCCC4)c3c12 | 4 µg/mL (≈ 10.9 µM) | –
COc1ccc2oc3c4ccccc4oc(=O)c3c2c1CN1CCCCC1=O | > 64 µg/mL | –
O=c1oc2cc(O)c(O)cc2c2oc3cc(O)c(O)c(CN4CCCCC4)c3c12 | 32 µg/mL (≈ 80.5 µM) | –
CC(C)(C)c1cc(O)c(CN2CCCCC2)c2c1oc1c3ccc(O)cc3oc(=O)c12 | 0.0039 µg/mL (≈ 0.00925 µM) | MIC=<90 [2]: 0.0039 to 0.0078 µg/mL (≈ 0.00925 to 0.0185 µM); MIC=<90 [3]: 0.0156 µg/mL (≈ 0.037 µM); MIC=<90 [4]: 0.001 to 0.002 µg/mL (≈ 0.00237 to 0.00475 µM); MIC=<90 [5]: 0.0039 µg/mL (≈ 0.00925 µM); MIC=<90 [6]: 0.0039 µg/mL (≈ 0.00925 µM)
O=c1oc2cc(O)ccc2c2oc3ccc(O)c(CN4CCCCC4)c3c12 | 0.0039 µg/mL (≈ 0.0107 µM) | MIC=<90 [2]: 0.0078 µg/mL (≈ 0.0213 µM); MIC=<90 [3]: 0.0156 µg/mL (≈ 0.0427 µM); MIC=<90 [4]: 0.0039 µg/mL (≈ 0.0107 µM); MIC=<90 [5]: 0.0078 µg/mL (≈ 0.0213 µM); MIC=<90 [6]: 0.0078 µg/mL (≈ 0.0213 µM)
NC[C@H]1O[C@H](O[C@H]2[C@H](O)[C@@H](O[C@H]3O[C@H](CO)[C@@H](O)[C@H](N)[C@H]3O)[C@H](N)C[C@@H]2N)[C@H](O)[C@@H](O)[C@@H]1O | 2 µg/mL (≈ 4.13 µM) | MIC=<90 [2]: 2 µg/mL (≈ 4.13 µM); MIC=<90 [3]: 2 µg/mL (≈ 4.13 µM); MIC=<90 [4]: 2 µg/mL (≈ 4.13 µM); MIC=<90 [5]: > 128 µg/mL; MIC=<90 [6]: > 128 µg/mL
O=C1CCCN1Cc1c(O)ccc2oc3c4ccccc4oc(=O)c3c12 | > 64 µg/mL | –
CC1CCN(Cc2c(O)ccc3oc4c5ccccc5oc(=O)c4c23)CC1 | 0.5 µg/mL (≈ 1.38 µM) | –
C[C@@H]1NC(=O)[C@@H](N)CNC(=O)[C@H](C2CCNC(=N)N2)NC(=O)/C(=C/NC(N)=O)NC(=O)[C@H](CNC(=O)CC(N)CCCN)NC1=O.N=C1NCCC([C@@H]2NC(=O)/C(=C/NC(N)=O)NC(=O)[C@H](CNC(=O)CC(N)CCCN)NC(=O)[C@H](CO)NC(=O)[C@@H](N)CNC2=O)N1 (stereo partly specified) | 1 µg/mL | –

SMILES | MIC=<90 [1] | further results
O=C(NCC1CC1)c1c(O)ccc2oc3c4ccccc4oc(=O)c3c12 | > 64 µg/mL | –
COc1c(N2C[C@@H]3CCCN[C@@H]3C2)c(F)cc2c(=O)c(C(=O)O)cn(C3CC3)c12 | 0.0625 to 0.125 µg/mL (≈ 0.156 to 0.311 µM) | –
COCCOc1ccc2oc3c4ccccc4oc(=O)c3c2c1CN1CCCC1=O | > 64 µg/mL | –
O=c1oc2cc(O)ccc2c2oc3cc(O)c(O)c(CN4CCCCC4)c3c12 | 2 µg/mL (≈ 5.24 µM) | –
NCC[C@H](O)C(=O)N[C@@H]1C[C@H](N)[C@@H](O[C@H]2O[C@H](CN)[C@@H](O)[C@H](O)[C@H]2O)[C@H](O)[C@H]1O[C@H]1O[C@H](CO)[C@@H](O)[C@H](N)[C@H]1O | 1 µg/mL (≈ 1.71 µM) | –
NNC(=O)c1ccncc1 | 0.04 µg/mL (≈ 0.292 µM) | MIC=<90 [2]: 0.04 µg/mL (≈ 0.292 µM); MIC=<90 [3]: 16 µg/mL (≈ 117 µM); MIC=<90 [4]: 16 µg/mL (≈ 117 µM); MIC=<90 [5]: 8 µg/mL (≈ 58.3 µM); MIC=<90 [6]: 8 µg/mL (≈ 58.3 µM)
O=c1oc2ccccc2c2oc3c(Cl)cc(O)c(CN4CCCCC4)c3c12 | 2 µg/mL (≈ 5.21 µM) | –
O=C1CCCCCN1Cc1c(O)ccc2oc3c4ccccc4oc(=O)c3c12 | > 64 µg/mL | –
O=C1CCCCN1Cc1c(O)ccc2oc3c4ccccc4oc(=O)c3c12 | > 64 µg/mL | –
O=c1oc2ccccc2c2oc3cc([N+](=O)[O-])c(O)c(CN4CCCCC4)c3c12 | > 64 µg/mL | –
O=c1oc2ccccc2c2oc3ccc(O)c(CN4CCCCC4)c3c12 | 0.125 to 0.25 µg/mL (≈ 0.358 to 0.716 µM) | –
O=c1oc2ccc(O)cc2c2oc3ccc(O)c(CN4CCCCC4)c3c12 | 0.5 µg/mL (≈ 1.37 µM) | –
CO[C@H]1/C=C/O[C@@]2(C)Oc3c(C)c(O)c4c(O)c(c(/C=N/N5CCN(C)CC5)c(O)c4c3C2=O)NC(=O)/C(C)=C\C=C\[C@H](C)[C@H](O)[C@@H](C)[C@@H](O)[C@@H](C)[C@H](OC(C)=O)[C@@H]1C | 0.125 µg/mL (≈ 0.152 µM) | MIC=<90 [2]: 0.0625 µg/mL (≈ 0.0759 µM); MIC=<90 [3]: 4 µg/mL (≈ 4.86 µM); MIC=<90 [4]: 128 µg/mL (≈ 156 µM); MIC=<90 [5]: > 128 µg/mL; MIC=<90 [6]: > 128 µg/mL
CC(C)(C)c1cc(O)c(CN2CCCCC2)c2c1oc1c3cc(O)ccc3oc(=O)c12 | 0.125 µg/mL (≈ 0.297 µM) | –
O=c1oc2ccccc2c2oc3ccc(O)cc3c12 | > 64 µg/mL | –
COCCOc1ccc2oc3c4ccccc4oc(=O)c3c2c1CN1CCCCC1=O | > 64 µg/mL | –
CC(C)(C)c1cc(O)c(CN2CCCCC2)c2c1oc1c3ccccc3oc(=O)c12 | 0.0625 to 0.125 µg/mL (≈ 0.154 to 0.308 µM) | –
CCOc1ccc2oc3c4ccccc4oc(=O)c3c2c1CN1CCCCC1=O | > 64 µg/mL | –
C[C@H]1COc2c(N3CCN(C)CC3)c(F)cc3c(=O)c(C(=O)O)cn1c23 | 0.25 µg/mL (≈ 0.692 µM) | MIC=<90 [2]: 0.125 µg/mL (≈ 0.346 µM); MIC=<90 [5]: 1 µg/mL (≈ 2.77 µM); MIC=<90 [6]: 2 µg/mL (≈ 5.53 µM)
O=c1oc2ccccc2c2oc3ccc(O)c(CN4CCCC4)c3c12 | 0.5 µg/mL (≈ 1.49 µM) | –
O=C(c1cc2oc3c4ccccc4oc(=O)c3c2cc1O)N1CCCCC1 | > 64 µg/mL | –
CC1CCCN(Cc2c(O)ccc3oc4c5ccccc5oc(=O)c4c23)C1 (stereo unspecified) | 2 µg/mL (≈ 5.5 µM) | –
